A word on the IC50: it is the concentration at which inhibition is half-maximal.

Our source for the IC50 values is patent US20170240556A1, “BIFLUORODIOXALANE-AMINO-BENZIMIDAZOLE KINASE INHIBITORS FOR THE TREATMENT OF CANCER, AUTOIMMUNEINFLAMMATION AND CNS DISORDERS” (4SC DISCOVERY GMBH, priority 2012, published 2017).

In experiment [1] the target is Casein kinase 1 delta (CSKN1D) (Homo sapiens, UniProt P48730). Kind of experiment: Casein kinase assay, CK1 delta. It is filed as biochemical. As to conditions: recombinant CSKN1D 5 nM, ATP 10 μM.
Sequence of Casein kinase 1 delta (CSKN1D) (P48730 whole entry): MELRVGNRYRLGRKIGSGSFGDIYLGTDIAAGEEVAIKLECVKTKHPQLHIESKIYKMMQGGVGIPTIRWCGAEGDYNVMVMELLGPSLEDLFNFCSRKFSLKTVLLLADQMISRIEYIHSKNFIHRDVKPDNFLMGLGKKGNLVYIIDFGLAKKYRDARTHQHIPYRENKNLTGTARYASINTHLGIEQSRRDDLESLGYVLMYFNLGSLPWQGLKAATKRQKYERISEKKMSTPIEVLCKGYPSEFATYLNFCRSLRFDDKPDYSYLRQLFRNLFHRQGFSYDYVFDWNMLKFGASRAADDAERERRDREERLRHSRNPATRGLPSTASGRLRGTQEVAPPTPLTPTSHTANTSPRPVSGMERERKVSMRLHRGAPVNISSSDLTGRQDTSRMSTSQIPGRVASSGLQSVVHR
In experiment [2] the target is Casein kinase 1 epsilon (CSKN1E) (Homo sapiens, UniProt P49674). Kind of experiment: Casein kinase assay, CK1 epsilon. The format is biochemical. The settings on record: recombinant CSKN1E 30 nM, ATP 10 μM.
Sequence of Casein kinase 1 epsilon (CSKN1E) (P49674 whole entry): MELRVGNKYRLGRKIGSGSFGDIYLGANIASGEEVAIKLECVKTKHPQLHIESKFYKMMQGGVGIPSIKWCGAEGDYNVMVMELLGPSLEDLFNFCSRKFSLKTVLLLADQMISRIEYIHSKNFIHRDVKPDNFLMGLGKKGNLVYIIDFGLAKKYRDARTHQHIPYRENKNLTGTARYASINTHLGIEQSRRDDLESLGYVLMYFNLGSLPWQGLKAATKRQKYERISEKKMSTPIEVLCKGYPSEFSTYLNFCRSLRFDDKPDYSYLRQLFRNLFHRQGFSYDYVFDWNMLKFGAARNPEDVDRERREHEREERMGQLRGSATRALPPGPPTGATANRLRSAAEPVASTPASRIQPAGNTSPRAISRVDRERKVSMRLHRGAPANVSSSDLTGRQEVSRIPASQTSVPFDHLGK

SMILES strings stand for the structures.

In the case of `O=C(Nc1nc(C(=O)Nc2nc3cc4c(cc3[nH]2)OC(F)(F)O4)ns1)c1ccc(F)cc1` [Compound 92, N-(2,2-difluoro-5H-[1,3]dioxolo[4′,5′:4,5]benzo[1,2-d]imidazol-6-yl)-5-(4-fluorobenzamido)-1,2,4-thiadiazole-3-carboxamide], the IC50 in experiment [1] and in experiment [2] was under 200 nM throughout.

`CC(=O)Nc1n[nH]c(C(=O)Nc2nc3cc4c(cc3[nH]2)OC(F)(F)O4)n1` [Compound 95, 3-acetamido-N-(2,2-difluoro-5H-[1,3]dioxolo[4′,5′:4,5]benzo[1,2-d]imidazol-6-yl)-1H-1,2,4-triazole-5-carboxamide]: the concentration for half-maximal inhibition (IC50) in experiment [1] and in experiment [2] was over 1000 nM throughout.

Consider `O=C(Nc1nc2cc3c(cc2[nH]1)OC(F)(F)O3)c1csc(C2CCN(c3ncnc4ccsc34)CC2)n1` [Compound 97, N-(2,2-difluoro-5H-[1,3]dioxolo[4′,5′:4,5]benzo[1,2-d]imidazol-6-yl)-2-(1-(thieno[3,2-d]pyrimidin-4-yl)piperidin-4-yl)thiazole-4-carboxamide], for which the IC50 in experiment [1] and in experiment [2] was 200 to 1000 nM each time.

Regarding `O=C(Nc1nc2cc3c(cc2[nH]1)OC(F)(F)O3)c1csc(-n2c(=O)n(CCN3CCOCC3)c3ccccc32)n1` [Compound 98, N-(2,2-difluoro-5H-[1,3]dioxolo[4′,5′:4,5]benzo[1,2-d]imidazol-6-yl)-2-(3-(2-morpholinoethyl)-2-oxo-2,3-dihydro-1H-benzo[d]imidazol-1-yl)thiazole-4-carboxamide], the IC50 was 200 to 1000 nM in experiment [1] and over 1000 nM in experiment [2].

On to `COc1cc(Nc2ncc(C(=O)Nc3nc4cc5c(cc4[nH]3)OC(F)(F)O5)s2)nc(OC)n1` [Compound 99, N-(2,2-difluoro-5H-[1,3]dioxolo[4′,5′:4,5]benzo[1,2-d]imidazol-6-yl)-2-((2,6-dimethoxypyrimidin-4-yl)amino)thiazole-5-carboxamide], for which the half-inhibitory concentration (IC50) in experiment [1] and in experiment [2] was over 1000 nM each time.

In the case of `CC(=O)c1c[nH]c(C(=O)Nc2nc3cc4c(cc3[nH]2)OC(F)(F)O4)c1` [Compound 104, 4-acetyl-N-(2,2-difluoro-5H-[1,3]dioxolo[4′,5′:4,5]benzo[1,2-d]imidazol-6-yl)-1H-pyrrole-2-carboxamide], the half-inhibitory concentration (IC50) in experiment [1] and in experiment [2] was under 200 nM each time.

For the compound `NC(=O)c1ccc(C(=O)Nc2nc3cc4c(cc3[nH]2)OC(F)(F)O4)cc1` [Compound 111, N^1-(2,2-difluoro-5H-[1,3]dioxolo[4′,5′:4,5]benzo[1,2-d]imidazol-6-yl)terephthalamide], the concentration for half-maximal inhibition (IC50) in experiment [1] and in experiment [2] was under 200 nM throughout.

As for `O=C(Nc1nc2cc3c(cc2[nH]1)OC(F)(F)O3)c1ccc(S(=O)(=O)N2CCOCC2)cc1` [Compound 117, N-(2,2-difluoro-5H-[1,3]dioxolo[4′,5′:4,5]benzo[1,2-d]imidazol-6-yl)-4-(morpholinosulfonyl)benzamide], the IC50 in experiment [1] and in experiment [2] was under 200 nM throughout.

As to `O=C(Nc1n[nH]c(C(=O)Nc2nc3cc4c(cc3[nH]2)OC(F)(F)O4)n1)c1ccc(Cl)cc1` [Compound 129, 3-(chlorobenzamido)-N-(2,2-difluoro-5H-[1,3]dioxolo[4′,5′:4,5]benzo[1,2-d]imidazol-6-yl)-1H-1,2,4-triazole-5-carboxamide], the figures for the 50% inhibitory concentration (IC50) in experiment [1] and in experiment [2] were 200 to 1000 nM and over 1000 nM, respectively.

On to `COc1ccc2cc([C@H](C)C(=O)Nc3nc4cc5c(cc4[nH]3)OC(F)(F)O5)ccc2c1` [Compound 133, (S)-N-(2,2-difluoro-5H-[1,3]dioxolo[4′,5′:4,5]benzo[1,2-d]imidazol-6-yl)-2-(6-methoxymaphthalen-2-yl)propanamide], for which the 50% inhibitory concentration (IC50) in experiment [1] and in experiment [2] was under 200 nM throughout.

Consider `Cc1nnsc1-c1nc(C(=O)Nc2nc3cc4c(cc3[nH]2)OC(F)(F)O4)cs1` [Compound 134, N-(2,2-difluoro-5H-[1,3]dioxolo[4′,5′:4,5]benzo[1,2-d]imidazol-6-yl)-2-(4-methyl-1,2,3-thiadiazol-5-yl)thiazole-4-carboxamide], for which the IC50 in experiment [1] and in experiment [2] was under 200 nM in each case.

Consider `O=C(Nc1nc2cc3c(cc2[nH]1)OC(F)(F)O3)c1csc(-c2cscn2)n1` [Compound 135, N-(2,2-difluoro-5H-[1,3]dioxolo[4′,5′:4,5]benzo[1,2-d]imidazol-6-yl)-[2,4-bithiazole]-4-carboxamide], for which the concentration for half-maximal inhibition (IC50) in experiment [1] and in experiment [2] was under 200 nM each time.

Turning to `O=C(Nc1nc2cc3c(cc2[nH]1)OC(F)(F)O3)c1coc(-c2cccs2)n1` [Compound 136, N-(2,2-difluoro-5H-[1,3]dioxolo[4′,5′:4,5]benzo[1,2-d]imidazol-6-yl)-2-(thiophen-2-yl)oxazole-4-carboxamide], the figures for the half-inhibitory concentration (IC50) in experiment [1] and in experiment [2] were under 200 nM and 200 to 1000 nM, respectively.

As to `Cc1cc(-c2nc(C(=O)Nc3nc4cc5c(cc4[nH]3)OC(F)(F)O5)cs2)no1` [Compound 141, N-(2,2-difluoro-5H-[1,3]dioxolo[4′,5′:4,5]benzo[1,2-d]imidazol-6-yl)-2-(5-methylisoxazol-3-yl)thiazole-4-carboxamide], the 50% inhibitory concentration (IC50) in experiment [1] and in experiment [2] was under 200 nM throughout.

For `O=C(Nc1nc2cc3c(cc2[nH]1)OC(F)(F)O3)c1ccc(-n2cccn2)cc1` [Compound 142, N-(2,2-difluoro-5H-[1,3]dioxolo[4′,5′:4,5]benzo[1,2-d]imidazol-6-yl)-4-(1H-pyrazol-1-yl)benzamide], the half-inhibitory concentration (IC50) in experiment [1] was under 200 nM; in experiment [2], over 1000 nM.

Regarding `O=C(Nc1nc2cc3c(cc2[nH]1)OC(F)(F)O3)c1cc(-c2ccco2)on1` [Compound 143, N-(2,2-difluoro-5H-[1,3]dioxolo[4′,5′:4,5]benzo[1,2-d]imidazol-6-yl)-5-(furan-2-yl)isoxazole-3-carboxamide], the IC50 in experiment [1] and in experiment [2] was 200 to 1000 nM in each case.

For `Cc1nn(C)cc1-c1cc(C(=O)Nc2nc3cc4c(cc3[nH]2)OC(F)(F)O4)no1` [Compound 144, N-(2,2-difluoro-5H-[1,3]dioxolo[4′,5′:4,5]benzo[1,2-d]imidazol-6-yl)-5-(1,3-dimethyl-1H-pyrazol-4-yl)isoxazole-3-carboxamide], the IC50 in experiment [1] was under 200 nM; in experiment [2], over 1000 nM.
